Consider three molecules from US20090105349A1, “ANDROGEN MODULATORS” (WARNER-LAMBERT COMPANY LLC, priority 2004, published 2009).

Where two headings read alike, the source gives them in different places. Some results are limits rather than exact numbers.

Assay [1] has as its system male C3H/HeN mice (telogen to anagen conversion). Format: in vivo. An excerpt:
While this model is a significant improvement over the telogen conversion assay as a model for human baldness, it suffers from a number of practical disadvantages. The macaques are expensive, relatively rare, labor intensive to maintain, and require long wash out periods between testing. […] Thus, the model relates to a modification of the existing telogen conversion assay. Male C3H/HeN mice approximately 7 weeks old are utilized. These animals are also uniformly in telogen, like their female counterparts. However, once shaven, the androgens inherently present in these male mice inhibit the conversion of the hair follicles to the anagen phase. An anti-androgen will block this androgenic effect and the follicles will convert to anagen, like their female counterparts.
The compounds shown below in Table IV were submitted for further testing utilizing the modified telogen conversion assay, described above. The testing was carried out in the following manner.
Male C3H/HeN mice, 6 to 7 weeks old (Charles River Laboratories, Raleigh, N.C.) were used for the study. Fur was clipped from the dorsal region of the mice prior to initiation of the study. Only mice with pink skin, a visual indication of the telogen phase, were selected for inclusion in the study.
A second group of animals received only the vehicle to serve as a control. Treatments were applied twice daily for 4 weeks.
The hair growth response was quantified by recording, for each animal, the day on which signs of hair growth first appeared over the treated area. The first sign of anagen was the darkening of skin color as melanocytes in the follicles started to synthesize melanin in preparation for the production of pigmented hairs. […] The day on which anagen was initiated in 50% of the test animals for both the treatment group and the vehicle group is reported below in Table IV.

Assay [2] has as its system male Syrian hamsters (ear sebaceous glands, sebum). The experiment in a line: Animal model for inhibition of sebum production (hamster ear). As to conditions: 3 % w/v, 4 weeks; for % CE Reduction / % WE Reduction: Vehicle #1 (polyethylene glycol/transcutol/ethanol 20/20/60), topical twice daily, vs vehicle control; for % WE & CE Reduction: Vehicle #1, topical twice daily, sum of WE and CE. The assay is classed as in vivo, Syrian hamster. The procedure: Arch. Derm. […] This model uses male Syrian hamsters, whose ears contain sebaceous glands.
Testing for sebum inhibition was carried out in the following manner. Male Syrian hamsters aged 9 to 10 weeks were introduced into the laboratory environment and acclimated for 2 weeks prior to use in the study. Each group consisted of 5 animals and run in parallel with vehicle and positive controls. Prior to administration, a sufficient quantity each compound was dissolved in 1 mL of the vehicle identified in Table III to achieve the final concentration reported in Table Ill.
Animals were dosed topically twice daily, five days a week, for 4 weeks. Each dose consisted of 25 micro liters of vehicle control or drug. The dose was applied to the ventral surfaces of both the right and left ears. All animals were sacrificed approximately 18-24 hours after the final dose. The right ears were collected from each animal and used for sebum analysis.
The ears were prepped for HPLC analysis in the following manner. One 8 mm distal biopsy punch was taken, just above the anatomical “V” mark in the ear to normalize the sample area. The punch was pulled apart. The ventral biopsy surface (the area where the topical dose was directly applied to the sebaceous glands) was retained for testing and the dorsal surface of the biopsy punch was discarded.
Tissue samples were blown with N2 gas and stored at −80° C. under nitrogen until HPLC analysis. In addition to ear samples, an aliquot of each drug and vehicle (at least 250 ul) was also stored at −80° C. for inclusion in the HPLC analysis.
HPLC analysis was carried out on an extract of the tissue sample. Tissue samples were contacted with 3 ml of solvent (a 4:1 admixture of 2,2,4-trimethylpentane and isopropyl alcohol). The mixture was shaken for 15 minutes and stored overnight at room temperature, protected from light. The next morning 1 milliliter of water was added to the sample and shaken for 15 minutes. The sample was then centrifuged at approximately 1500 rpm for 15 minutes. Two ml of the organic phase (top layer) was transferred to a glass vial, dried at 37° C., under nitrogen, for approximately 1 hour, and then lyophilized for approximately 48 hours. The samples were then removed from the lyophilizer and each vial was reconstituted with 600 μl of solvent A (trimethylpentane/tetrahydrofuran (99:1). The samples were then recapped and vortexed for 5 minutes.
200 μl of each sample was then transferred to a pre-labeled 200 μl HPLC vial with 200 μL glass inserts. The HPLC vials were placed in the autosampler tray for the Agilent 1100 series HPLC unit. The Agilent 1100 HPLC system consisted of a thermostated autosampler, a quarternary pump, a column heater, and an A/D interface module. All components were controlled by Agilent ChemStation software. A Waters Spherisorb S3W 4.6×100 mm analytical column was maintained at 30° C. by the Agilent column heater unit. The HPLC autosampler was programmed to maintain the sample temperature at 20 C throughout the run.
10 uL of each sample was injected in triplicate into the column. Two solvents were used for the solvent gradient. Solvent A was an admixture of trimethylpentane and tetrahydrofuran (99:1). Solvent B was ethylacetate. The gradient utilized is described in the table below: […]
The Sedex 75 Evaporative Light Scattering Detector (ELSD) was operated at 45° C. with a gain of 5, and N2 pressure maintained at 3.1 bar. Analog signal obtained by the instrument was sent to the Agilent A/D interface module where it was converted to a digital output. The conversion was based on a 10000 mAU/volt set point and the data rate was set at 10 Hz (0.03 min). The resulting digital output was then feed into the Agilent ChemStation software for integration of the peak area.

For another assay, the system named is spinal BMD. As to conditions: after 7 years of treatment; cited from earlier work.

Regarding `Cc1ccccc1Oc1ccc(C#N)cc1Cl` [Example 4, 3-Chloro-4-o-tolyloxy-benzonitrile], the “Anagen-Trx (day on which anagen was initiated in 50% of the test animals)” value in assay [1] (3 % w/v, Vehicle #2 (polyethylene glycol/ethanol 30/70), topical twice daily for 4 weeks) was >35 days. Besides, in assay [2], the “% CE Reduction” value was 76%, the “% WE Reduction” value was determined as 90% and the “% WE & CE Reduction” value turned out to be 166%.
Regarding `Cc1ccccc1Oc1ccc(C#N)c(Cl)c1` [Example 7, 2-Chloro-4-o-tolyloxy-benzonitrile], in assay [1] (1 % w/v, Vehicle #2, topical twice daily for 4 weeks), the “Anagen-Trx (day on which anagen was initiated in 50% of the test animals)” value is >60 days. Moreover, in assay [1] (5 % w/v, Vehicle #2, topical twice daily for 4 weeks), the “Anagen-Trx (day on which anagen was initiated in 50% of the test animals)” value is 35 days. For the same molecule, in assay [2], the “% CE Reduction” value is on record as 71%, the “% WE Reduction” value turned out to be 87% and the “% WE & CE Reduction” value is recorded as 158%.
`NCCCC(O)(P(=O)(O)O)P(=O)(O)O` [alendronate]: the “increase in spinal BMD” value with spinal BMD is given as ≤ 11%.
